Consider 29 compounds from US20130296311A1, “INHIBITORS OF HCV NS5A” (PRESIDIO PHARMACEUTICALS, INC., priority 2010, published 2013).

SMILES strings stand for the structures.

The first experiment concerns HCV 1b_Huh-Luc/Neo-ET cell line persistently expressing a bicistronic genotype 1b replicon in Huh 7 cells. Put plainly: HCV replicon assay (luciferase readout, 72 h). It counts as cell-based, HCV genotype 1b. The settings on record: Hepatitis C virus, Huh-7, 72 h, read-out: Inhibition of HCV genotype 1b. In a few lines:
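EC50 values come from a four-parameter fit of luciferase signal as % of untreated control, repeated across several determinations. The signal is from the HCV 1b_Huh-Luc/Neo-ET replicon line, dosed in triplicate one day post-plating and incubated 72 h before Bright-Glo readout.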
Turning to `COC(=O)N[C@@H](C(=O)N1CCC[C@H]1c1ncc(-c2ccc(C#Cc3ccc(-c4cnc([C@@H]5CCCN5C(=O)Nc5ccccc5)[nH]4)cc3)cc2)[nH]1)c1ccccc1` [Compound 196], the EC50 was 1 to 9.9 nM.
Consider `COC(=O)N[C@@H](C(=O)N1CCC[C@H]1c1ncc(-c2ccc(C#Cc3ccc(-c4cnc([C@@H]5CCCN5C(=O)[C@H](NC(=O)N5CC[C@@H](O)C5)c5ccccc5)[nH]4)cc3)cc2)[nH]1)c1ccccc1` [Compound 268], for which the EC50 was below 1 nM.
As to `COC(=O)N[C@@H](C(=O)N1CCC[C@H]1c1ncc(-c2ccc(C#Cc3ccc(-c4cnc([C@@H]5CCCN5C(=O)[C@H](NC(=O)N5CCCC5)c5ccccc5)[nH]4)cc3)cc2)[nH]1)c1ccccc1` [Compound 243], the EC50 is below 1 nM.
For `C[C@@H]1OC(=O)N[C@H]1C(=O)N1CCC[C@H]1c1ncc(-c2ccc(C#Cc3ccc(-c4cnc([C@@H]5CCCN5C(=O)[C@@H]5NC(=O)O[C@H]5C)[nH]4)cc3)cc2)[nH]1` [Compound 1000], the EC50 is 10 to 999 nM.
On to `COC(=O)N[C@H](C(=O)N1CCC[C@H]1c1ncc(-c2ccc(C#Cc3ccc(-c4cnc([C@@H]5CCCN5C(=O)[C@@H](NC(=O)OC)[C@@H](C)OC)[nH]4)cc3)cc2)[nH]1)[C@@H](C)OC` [Compound 284], for which the EC50 is below 1 nM.
On the same count and under the same terms, under `CNC(=O)N[C@@H](C(=O)N1CCC[C@H]1c1ncc(-c2ccc(C#Cc3ccc(-c4cnc([C@@H]5CCCN5C(=O)[C@H](NC(=O)NC)c5ccccc5)[nH]4)cc3)cc2)[nH]1)c1ccccc1` [Compound 162] stands below 1 nM; under `COC(=O)N[C@H](C(=O)N1CCC[C@H]1c1ncc(-c2ccc(C#Cc3ccc(-c4cnc([C@@H]5CCCN5C(=O)[C@@H](NC(=O)OC)C(C)C)[nH]4)cc3)cc2)[nH]1)C(C)C` [Compound 266], below 1 nM.
For the compound `O=C([C@H](O)c1ccccc1)N1CCC[C@H]1c1ncc(C#Cc2ccc(-c3cnc([C@@H]4CCCN4C(=O)[C@H](O)c4ccccc4)[nH]3)cc2)[nH]1` [Compound 112], the EC50 was below 1 nM.
On to `C[C@H]1OC(=O)N(C)[C@@H]1C(=O)N1CCC[C@H]1c1ncc(-c2ccc(C#Cc3ccc(-c4cnc([C@@H]5CCCN5C(=O)[C@@H]5[C@@H](C)OC(=O)N5C)[nH]4)cc3)cc2)[nH]1` [Compound 980], for which the EC50 is 10 to 999 nM.
With `COC(=O)N[C@H](C(=O)N1CCC[C@H]1c1nc2c([nH]1)-c1ccc(C#Cc3ccc4nc([C@@H]5CCCN5C(=O)[C@@H](NC(=O)OC)C(C)C)[nH]c4c3)cc1CC2)C(C)C` [Compound 1101], the EC50 is below 1 nM.
Take `CC(C)(C)OC(=O)N[C@@H](C(=O)N1CCC[C@H]1C(=O)NCc1ccc(C#Cc2cnc([C@@H]3CCCN3C(=O)[C@H](NC(=O)OC(C)(C)C)c3ccccc3)[nH]2)cc1)c1ccccc1` [Compound 119]: the EC50 was below 1 nM.
As to `COC(=O)N[C@@H](C(=O)N1CCC[C@H]1CNC(=O)c1ccc(C#Cc2ccc(-c3cnc([C@@H]4CCCN4C(=O)[C@H](NC(=O)OC)c4ccccc4)[nH]3)cc2)cc1)c1ccccc1` [Compound 211], the EC50 was below 1 nM.
`COC(=O)N[C@H](C(=O)N1CCC[C@H]1c1ncc(-c2ccc(C#Cc3ccc(-c4cnc([C@@H]5CCCN5C(=O)[C@@H](NC(=O)OC)C(C)C)[nH]4)cn3)cc2)[nH]1)C(C)C` [Compound 1009]: the EC50 is below 1 nM.
Turning to `COC(=O)N[C@@H](C(=O)N1CCC[C@H]1c1ncc(-c2ccc(C#Cc3ccc(-c4cnc([C@@H]5CCCN5C(=O)[C@@H](c5ccccc5)N5CCOCC5)[nH]4)cc3)cc2)[nH]1)c1ccccc1` [Compound 185], the EC50 is below 1 nM.
Same read-out and setting: the same measure for `COC(=O)N[C@@H](C(=O)N1CCC[C@H]1c1ncc(-c2ccc(C#Cc3ccc(-c4cnc([C@@H]5CCCN5C(=O)[C@H](NC(=O)OC)[C@H](C)OC)[nH]4)cc3)cc2)[nH]1)[C@H](C)OC` [Compound 977]: 10 to 999 nM; for `CC(C)(NC(=O)C1CC1)C(=O)N1CCC[C@H]1c1ncc(C#Cc2ccc(-c3cnc([C@@H]4CCCN4C(=O)C(C)(C)NC(=O)C4CC4)[nH]3)cc2)[nH]1` [Compound 108]: above 1000 nM.
In the case of `CC1(O)CCN(C(=O)N[C@@H](C(=O)N2CCC[C@H]2c2nc(-c3ccc4cc(C#Cc5cnc([C@@H]6CCCN6C(=O)[C@H](NC(=O)N6CCC(C)(O)CC6)c6ccccc6)[nH]5)ccc4c3)c[nH]2)c2ccccc2)CC1` [Compound 805], the EC50 is below 1 nM.
With `CCN(CC)[C@@H](C(=O)N1CCC[C@H]1c1ncc(C#Cc2ccc(C#Cc3cnc([C@@H]4CCCN4C(=O)[C@H](NC(=O)OC)c4ccccc4)[nH]3)cc2)[nH]1)c1ccccc1` [Compound 315], the EC50 is below 1 nM.
The same measure, in the same setting: the same measure for `COC[C@H]1CCCN1C(=O)N[C@@H](C(=O)N1CCC[C@H]1c1ncc(-c2ccc(C#Cc3ccc(-c4cnc([C@@H]5CCCN5C(=O)[C@H](NC(=O)OC)c5ccccc5)[nH]4)cc3)cc2)[nH]1)c1ccccc1` [Compound 259]: below 1 nM; for `CCN(CC)[C@@H](C(=O)N1CCC[C@H]1c1ncc(-c2ccc(C#Cc3ccc(-c4cnc([C@@H]5CCCN5C(=O)[C@H](NS(C)(=O)=O)c5ccccc5)[nH]4)cc3)cc2)[nH]1)c1ccccc1` [Compound 229]: below 1 nM.
Same read-out and setting: under `O=C(N[C@@H](C(=O)N1CCC[C@H]1c1ncc(C#Cc2ccc(-c3cnc([C@@H]4CCCN4C(=O)[C@H](NC(=O)N4CCOCC4)c4ccccc4)[nH]3)cc2)[nH]1)c1ccccc1)N1CCOCC1` [Compound 102] stands 1 to 9.9 nM; under `COC(=O)N[C@@H](C(=O)N1CCC[C@H]1c1ncc(-c2ccc(C#Cc3ccc(C(=O)NC[C@@H]4CCCN4C(=O)[C@H](NC(=O)N4CCN(C)CC4)c4ccccc4)cc3)cc2)[nH]1)c1ccccc1` [Compound 236], below 1 nM.

The experiment is the same for the next values; noted with them: Hepatitis C virus, Huh-7, read-out: Inhibition of HCV genotype 1b.
Regarding `COC(=O)N[C@H](C(=O)N1CCN(C(=O)OC)C[C@H]1c1ncc(-c2ccc(C#Cc3ccc4nc([C@@H]5CCCN5C(=O)[C@@H](NC(=O)OC)C(C)C)[nH]c4c3)cc2)[nH]1)C(C)C` [Compound 1228], the EC50 is below 1 nM.
As for `COC(=O)N[C@H](C(=O)N1CCN(C(C)=O)C[C@H]1c1ncc(-c2ccc(C#Cc3ccc4nc([C@@H]5CCCN5C(=O)[C@@H](NC(=O)OC)C5CCOCC5)[nH]c4c3)cc2)[nH]1)C1CCOCC1` [Compound 1234], the EC50 fell in the range of 1 to 9.9 nM.
Regarding `COC(=O)N[C@H](C(=O)N1CCC[C@H]1c1ncc(-c2ccc3cc(C#Cc4[nH]c([C@@H]5CCCN5C(=O)[C@@H](NC(=O)OC)C(C)C)nc4C4CC4)ccc3c2)[nH]1)C(C)C` [Compound 1300], the EC50 was below 1 nM.
Take `COC(=O)N[C@H](C(=O)N1CCN(C(=O)OC)C[C@H]1c1ncc(-c2ccc(C#Cc3ccc4nc([C@@H]5CCCN5C(=O)[C@@H](NC(=O)OC)C5CCOCC5)[nH]c4c3)cc2)[nH]1)C(C)C` [Compound 1229]: the EC50 is below 1 nM.
Same read-out and setting: under `COC(=O)N[C@H](C(=O)N1CCC[C@H]1c1nc2ccc(C#Cc3ccc4c(ccc5nc([C@@H]6CCCN6C(=O)[C@@H](NC(=O)OC)C(C)C)[nH]c54)c3)cc2[nH]1)C(C)C` [Compound 1273] stands below 1 nM; under `CC[C@H](C)C(NC(=O)OC)C(=O)N1CCC[C@H]1c1nc2ccc(C#Cc3ccc(-c4cnc([C@@H]5CCCN5C(=O)[C@@H](NC(=O)OC)[C@@H](C)OC)[nH]4)cc3)cc2[nH]1` (some centres unmarked) [Compound 1246], below 1 nM.
As to `COC(=O)N[C@H](C(=O)N1CCC[C@H]1c1ncc(-c2ccc(C#Cc3ccc(-c4cnc([C@@H]5CCCN5C(=O)[C@H](NC(=O)OC)c5ccccc5OC)[nH]4)cc3)cc2)[nH]1)[C@@H](C)OC` [Compound 1211], the EC50 was below 1 nM.
